Laboratory results as given in patent US20060154243A1 (priority 2003, published 2006).

Legend:
Assay type in all cases: binding, human
serum 62 (individual 62) = tested on: serum 62 (individual 62)
serum London = tested on: serum London
serum SARS-yellow = tested on: serum SARS-yellow
serum 6 (individual 6) = tested on: serum 6 (individual 6)
[1] = tested on: serum 1a (individual 1, early serum)
serum SARS-green = tested on: serum SARS-green
[2] = tested on: serum 1b (individual 1, late serum)
serum 2 (individual 2) = tested on: serum 2 (individual 2)
serum 37 (individual 37) = tested on: serum 37 (individual 37)
[3] = tested on: control serum LUMC (pooled serum of ten healthy hospital workers)
[4] = tested on: control serum Blood-bank (commercial negative donor pooled serum)

| Sequence | Binding of serum 62 to linear peptides of Orf14 of SARS-CoV TOR2 (serum 62 (individual 62)) | Binding of serum London to linear peptides of Orf14 of SARS-CoV TOR2 (serum London) | Binding of serum SARS-yellow to linear peptides of Orf14 of SARS-CoV TOR2 (serum SARS-yellow) | Binding of serum 6 to linear peptides of Orf14 of SARS-CoV TOR2 (serum 6 (individual 6)) | Binding of serum 1a to linear peptides of Orf14 of SARS-CoV TOR2 [1] | Binding of serum SARS-green to linear peptides of Orf14 of SARS-CoV TOR2 (serum SARS-green) | Binding of serum 1b to linear peptides of Orf14 of SARS-CoV TOR2 [2] | Binding of serum 2 to linear peptides of Orf14 of SARS-CoV TOR2 (serum 2 (individual 2)) | Binding of serum 37 to linear peptides of Orf14 of SARS-CoV TOR2 (serum 37 (individual 37)) | Control serum LUMC linear peptides [3] | Control serum LUMC looped peptides [3] | Control Serum Blood-Bank Looped peptides [4] | Control serum Blood-bank linear peptides [4] |
| --- | --- | --- | --- | --- | --- | --- | --- | --- | --- | --- | --- | --- | --- |
| HVVAVIQEIQLLAAV | 0.3 | 0.4 | 0.4 | 0.4 | 0.5 | 0.1 | 0.4 | 0.5 | 0.6 | 0.5 | 0.4 | 0.6 | 0.4 |
| ILLLEWLAEVVKLPS | 0.4 | 0.5 | 0.3 | 0.5 | 0.5 | 0.1 | 0.4 | 0.5 | 0.6 | 0.5 | 0.6 | 0.7 | 0.6 |
| IQEIQLLAAVGEILL | 0.4 | 0.3 | 0.4 | 0.4 | 0.5 | 0.3 | 0.4 | 0.4 | 0.7 | 0.6 | 0.5 | 0.6 | 0.4 |
| IQLLAAVGEILLLEW | 0.4 | 0.4 | 0.4 | 0.4 | 0.5 | 0.2 | 0.4 | 0.5 | 0.6 | 0.6 | 0.5 | 0.6 | 0.5 |
| KPLLAPHHVVAVIQE | 0.4 | 0.4 | 0.4 | 0.4 | 0.5 | 0.3 | 0.4 | 0.4 | 0.6 | 0.6 | 0.6 | 0.6 | 0.5 |
| LAAVGEILLLEWLAE | 0.5 | 0.6 | 0.6 | 0.5 | 0.6 | 0.5 | 0.5 | 0.5 | 0.7 | 0.6 | 0.7 | 0.7 | 0.4 |
| LAPHHVVAVIQEIQL | 0.4 | 0.4 | 0.4 | 0.4 | 0.5 | 0.1 | 0.4 | 0.4 | 0.5 | 0.6 | 0.5 | 0.5 | 0.3 |
| LEWLAEVVKLPSRYC | 0.4 | 0.5 | 0.2 | 0.4 | 0.6 | 0.1 | 0.3 | 0.4 | 0.7 | 0.4 | 0.7 | 0.8 | 0.4 |
| LLAAVGEILLLEWLA | 0.4 | 0.4 | 0.4 | 0.4 | 0.5 | 0.1 | 0.4 | 0.4 | 0.6 | 0.6 | 0.6 | 0.6 | 0.5 |
| LLAPHHVVAVIQEIQ | 0.5 | 0.5 | 0.5 | 0.5 | 0.5 | 0.3 | 0.5 | 0.5 | 0.6 | 0.6 | 0.8 | 0.8 | 0.4 |
| LLEWLAEVVKLPSRY | 0.4 | 0.4 | 0.3 | 0.5 | 0.5 | 0.1 | 0.4 | 0.3 | 0.5 | 0.4 | 0.6 | 0.6 | 0.5 |
